How the values were obtained:
[1] = biological target: Human MET (residues 956-1390) (Homo sapiens (Human), UniProt P08581); experiment: Human Met kinase assay, HTRF KinEase (Example D-2); format: biochemical; conditions: protocol of Example D-2 (other compounds); read-out: c-Met IC50
How it was run: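 MET kinase domain (956-1390), 0.1 ng/well, in buffer with 5 mM MgCl2, 1 mM DTT and 1 mM MnCl2, phosphorylated a biotinylated peptide at ATP Km for 40 min at RT; 10 concentrations, 3% DMSO final. EDTA-stopped HTRF read after 60 min; IC50 from a 4-parameter logistic fit.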

[2] = biological target: Mer (phospho-Mer, MERTK-transfected 293A cells) (Homo sapiens (Human), UniProt Q12866); experiment: Mer autophosphorylation ELISA in transient transfected 293A cells (Example H); format: cell-based; conditions: cellular activity; Mer autophosphorylation ELISA in transient transfected 293A cells
Mer (phospho-Mer, MERTK-transfected 293A cells), sequence (Q12866 21-999): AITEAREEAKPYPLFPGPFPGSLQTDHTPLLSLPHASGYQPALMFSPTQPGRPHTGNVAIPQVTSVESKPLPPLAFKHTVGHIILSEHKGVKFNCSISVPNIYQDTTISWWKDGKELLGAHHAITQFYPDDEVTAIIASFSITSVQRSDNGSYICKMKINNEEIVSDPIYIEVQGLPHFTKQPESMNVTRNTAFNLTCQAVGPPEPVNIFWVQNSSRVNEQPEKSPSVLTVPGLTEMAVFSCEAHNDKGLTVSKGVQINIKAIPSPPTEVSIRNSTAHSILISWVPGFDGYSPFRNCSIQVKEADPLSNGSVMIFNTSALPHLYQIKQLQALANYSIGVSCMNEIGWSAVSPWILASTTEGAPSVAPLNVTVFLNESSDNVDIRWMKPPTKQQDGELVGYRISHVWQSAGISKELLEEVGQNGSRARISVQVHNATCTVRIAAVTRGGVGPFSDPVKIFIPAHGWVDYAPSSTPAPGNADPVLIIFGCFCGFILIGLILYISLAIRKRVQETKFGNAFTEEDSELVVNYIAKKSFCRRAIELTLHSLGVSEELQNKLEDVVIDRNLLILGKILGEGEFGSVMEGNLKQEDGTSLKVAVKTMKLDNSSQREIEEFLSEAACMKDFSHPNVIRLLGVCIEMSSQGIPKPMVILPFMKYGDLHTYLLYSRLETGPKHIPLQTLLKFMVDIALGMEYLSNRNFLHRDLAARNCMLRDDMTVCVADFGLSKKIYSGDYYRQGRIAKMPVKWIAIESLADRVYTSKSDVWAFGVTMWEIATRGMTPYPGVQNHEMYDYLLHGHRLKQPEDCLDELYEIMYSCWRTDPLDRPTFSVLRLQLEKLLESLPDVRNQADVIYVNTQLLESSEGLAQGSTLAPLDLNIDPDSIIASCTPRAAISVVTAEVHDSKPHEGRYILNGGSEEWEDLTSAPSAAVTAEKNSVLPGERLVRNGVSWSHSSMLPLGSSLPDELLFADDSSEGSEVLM
How it was run: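 IC50 from phospho-Mer ELISA of MERTK-transfected 293A cell lysates after 1 h treatment with serially diluted compound in serum-free medium.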

Human MET (residues 956-1390), sequence (P08581 956-1390): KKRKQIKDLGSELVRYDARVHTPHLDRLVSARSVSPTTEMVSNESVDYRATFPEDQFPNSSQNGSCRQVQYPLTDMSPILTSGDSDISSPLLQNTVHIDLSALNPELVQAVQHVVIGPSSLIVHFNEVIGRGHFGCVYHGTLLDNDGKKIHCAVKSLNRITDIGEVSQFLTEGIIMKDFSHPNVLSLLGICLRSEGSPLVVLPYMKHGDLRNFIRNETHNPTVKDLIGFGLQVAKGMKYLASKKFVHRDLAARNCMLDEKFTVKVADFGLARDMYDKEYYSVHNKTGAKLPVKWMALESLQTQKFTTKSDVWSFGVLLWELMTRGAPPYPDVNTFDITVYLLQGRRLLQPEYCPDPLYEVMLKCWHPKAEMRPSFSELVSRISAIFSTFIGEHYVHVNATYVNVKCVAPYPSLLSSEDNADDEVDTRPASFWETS

| SMILES | IC50 [1] | IC50 [2] |
| --- | --- | --- |
| COc1cc2nccc(Oc3ccc(NC(=O)c4cn(C(C)(C)C)cc(-c5ccc(F)cc5)c4=O)cc3F)c2nc1OC [Compound 48, 1-tert-Butyl-N-[4-[(6,7-dimethoxy-1,5-naphthyridin-4-yl)oxy]-3-fluorophenyl]-5-(4-fluorophenyl)-4-oxopyridine-3-carboxamide] | < 100 nM | < 100 nM |
| COc1cc2nccc(Oc3ccc(NC(=O)c4cn(-c5ccn(C)n5)cc(-c5ccc(F)cc5)c4=O)cc3F)c2nc1OC [Compound 53, N-[4-[(6,7-Dimethoxy-1,5-naphthyridin-4-yl)oxy]-3-fluorophenyl]-5-(4-fluorophenyl)-1-(1-methylpyrazol-3-yl)-4-oxopyridine-3-carboxamide] | < 100 nM | < 100 nM |
| COc1cc2nccc(Oc3ccc(NC(=O)c4cn(C)c(C)c(-c5ccc(F)cc5)c4=O)cc3F)c2nc1OC [Compound 58, N-[4-[(6,7-Dimethoxy-1,5-naphthyridin-4-yl)oxy]-3-fluorophenyl]-5-(4-fluorophenyl)-1,6-dimethyl-4-oxopyridine-3-carboxamide] | < 100 nM | < 100 nM |
| COc1cc2nccc(Oc3ccc(NC(=O)c4cn(C5(C(F)(F)F)CC5)cc(-c5ccc(F)cc5)c4=O)cc3F)c2nc1OC [Compound 59, N-[4-[(6,7-Dimethoxy-1,5-naphthyridin-4-yl)oxy]-3-fluorophenyl]-5-(4-fluorophenyl)-4-oxo-1-[1-(trifluoromethyl)cyclopropyl]pyridine-3-carboxamide] | < 100 nM | < 100 nM |
| COc1cc2nccc(Oc3ccc(NC(=O)c4cn(-c5cnn(C(F)F)c5)cc(-c5ccc(F)cc5)c4=O)cc3F)c2nc1OC [Compound 60, 1-[1-(Difluoromethyl)pyrazol-4-yl]-N-[4-[(6,7-dimethoxy-1,5-naphthyridin-4-yl)oxy]-3-fluorophenyl]-5-(4-fluorophenyl)-4-oxopyridine-3-carboxamide] | < 100 nM | < 100 nM |
| COc1cc2nccc(Oc3ccc(NC(=O)c4cn(-c5cc[nH]n5)cc(-c5ccc(F)cc5)c4=O)cc3F)c2nc1OC [Compound 61, N-[4-[(6,7-Dimethoxy-1,5-naphthyridin-4-yl)oxy]-3-fluorophenyl]-5-(4-fluorophenyl)-4-oxo-1-(1H-pyrazol-3-yl)pyridine-3-carboxamide] | < 100 nM | < 100 nM |
| COc1cc2nccc(Oc3ccc(NC(=O)c4cn(-c5cn[nH]c5)cc(-c5ccc(F)cc5)c4=O)cc3F)c2nc1OC [Compound 62, N-[4-[(6,7-Dimethoxy-1,5-naphthyridin-4-yl)oxy]-3-fluorophenyl]-5-(4-fluorophenyl)-4-oxo-1-(1H-pyrazol-4-yl)pyridine-3-carboxamide] | < 100 nM | < 100 nM |
| CCn1cc(C(=O)Nc2ccc(Oc3ccnc4cc(OC)c(OC)nc34)c(F)c2)c(=O)c(-c2ccc(F)cc2)c1C [Compound 63, N-[4-[(6,7-Dimethoxy-1,5-naphthyridin-4-yl)oxy]-3-fluorophenyl]-1-ethyl-5-(4-fluorophenyl)-6-methyl-4-oxopyridine-3-carboxamide] | < 100 nM | < 100 nM |
| COc1cnc2c(Oc3ccc(NC(=O)c4cnc(C)c(-c5ccc(F)cc5)c4O)cc3F)ccnc2c1 [Compound 64, N-[3-Fluoro-4-[(7-methoxy-1,5-naphthyridin-4-yl)oxy]phenyl]-5-(4-fluorophenyl)-4-hydroxy-6-methylpyridine-3-carboxamide] | < 100 nM | < 100 nM |
| COc1cc2nccc(Oc3ccc(NC(=O)c4cn(C)c(C)c(-c5ccc(F)cc5)c4=O)cc3)c2nc1OC [Compound 65, N-[4-[(6,7-Dimethoxy-1,5-naphthyridin-4-yl)oxy]phenyl]-5-(4-fluorophenyl)-1,6-dimethyl-4-oxopyridine-3-carboxamide] | < 100 nM | < 100 nM |
| COc1cnc2c(Oc3ccc(NC(=O)c4c(C)nc(C)c(-c5ccc(F)cc5)c4O)cc3F)ccnc2c1 [Compound 66, N-[3-Fluoro-4-[(7-methoxy-1,5-naphthyridin-4-yl)oxy]phenyl]-5-(4-fluorophenyl)-4-hydroxy-2,6-dimethylpyridine-3-carboxamide] | < 100 nM | < 100 nM |
| COc1ccc2nccc(Oc3ccc(NC(=O)c4c(C)nc(C)c(-c5ccc(F)cc5)c4O)cc3F)c2n1 [Compound 67, N-[3-Fluoro-4-[(6-methoxy-1,5-naphthyridin-4-yl)oxy]phenyl]-5-(4-fluorophenyl)-4-hydroxy-2,6-dimethylpyridine-3-carboxamide] | < 100 nM | < 100 nM |
| COCCOc1nc2c(Oc3ccc(NC(=O)c4cnc(C)c(-c5ccc(F)cc5)c4O)cc3F)ccnc2cc1OC [Compound 68, N-[3-Fluoro-4-[[7-methoxy-6-(2-methoxyethoxy)-1,5-naphthyridin-4-yl]oxy]phenyl]-5-(4-fluorophenyl)-4-hydroxy-6-methylpyridine-3-carboxamide] | < 100 nM | < 100 nM |
| COc1cc2nccc(Oc3ccc(NC(=O)c4cnc(C)c(-c5ccc(F)cc5C)c4O)cc3F)c2nc1OC [Compound 69, N-[4-[(6,7-Dimethoxy-1,5-naphthyridin-4-yl)oxy]-3-fluorophenyl]-5-(4-fluoro-2-methylphenyl)-4-hydroxy-6-methylpyridine-3-carboxamide] | < 100 nM | < 100 nM |
| COc1ccc2nccc(Oc3ccc(NC(=O)c4c(C)nc(C)c(-c5ccc(F)cc5C)c4O)cc3F)c2n1 [Compound 70, N-[3-Fluoro-4-[(6-methoxy-1,5-naphthyridin-4-yl)oxy]phenyl]-5-(4-fluoro-2-methylphenyl)-4-hydroxy-2,6-dimethylpyridine-3-carboxamide] | < 100 nM | < 100 nM |
| COc1cc2nccc(Oc3ccc(NC(=O)c4cnc(CO)c(-c5ccc(F)cc5)c4O)cc3F)c2nc1OC [Compound 71, N-[4-[(6,7-Dimethoxy-1,5-naphthyridin-4-yl)oxy]-3-fluorophenyl]-5-(4-fluorophenyl)-4-hydroxy-6-(hydroxymethyl)pyridine-3-carboxamide] | < 100 nM | < 100 nM |
| COc1cc2nccc(Oc3ccc(NC(=O)c4cn(C)c(CO)c(-c5ccc(F)cc5)c4=O)cc3F)c2nc1OC [Compound 72, N-[4-[(6,7-Dimethoxy-1,5-naphthyridin-4-yl)oxy]-3-fluorophenyl]-5-(4-fluorophenyl)-6-(hydroxymethyl)-1-methyl-4-oxopyridine-3-carboxamide] | < 100 nM | < 100 nM |
| COc1cc2nccc(Oc3ccc(NC(=O)c4cn(C)c(CF)c(-c5ccc(F)cc5)c4=O)cc3F)c2nc1OC [Compound 73, N-[4-[(6,7-Dimethoxy-1,5-naphthyridin-4-yl)oxy]-3-fluorophenyl]-6-(fluoromethyl)-5-(4-fluorophenyl)-1-methyl-4-oxopyridine-3-carboxamide] | < 100 nM | < 100 nM |
| COc1cc2nccc(Oc3ccc(NC(=O)c4cn(CC(F)(F)F)c(C)c(-c5ccc(F)cc5)c4=O)cc3F)c2nc1OC [Compound 74, N-[4-[(6,7-Dimethoxy-1,5-naphthyridin-4-yl)oxy]-3-fluorophenyl]-5-(4-fluorophenyl)-6-methyl-4-oxo-1-(2,2,2-trifluoroethyl)pyridine-3-carboxamide] | < 100 nM | < 100 nM |
| COc1cc2nccc(Oc3ccc(NC(=O)c4cn(C)c(C)c(-c5ccc(F)cc5C)c4=O)cc3F)c2nc1OC [Compound 75, N-[4-[(6,7-Dimethoxy-1,5-naphthyridin-4-yl)oxy]-3-fluorophenyl]-5-(4-fluoro-2-methylphenyl)-1,6-dimethyl-4-oxopyridine-3-carboxamide] | < 100 nM | < 100 nM |
| CNc1c(-c2ccc(F)cc2)c(=O)c(C(=O)Nc2ccc(Oc3ccnc4cc(OC)c(OC)nc34)c(F)c2)cn1C [Compound 76, N-[4-[(6,7-Dimethoxy-1,5-naphthyridin-4-yl)oxy]-3-fluorophenyl]-5-(4-fluorophenyl)-1-methyl-6-(methylamino)-4-oxopyridine-3-carboxamide] | < 100 nM | < 100 nM |
| COc1cc2nccc(Oc3ccc(NC(=O)c4cn(C)c(C#N)c(-c5ccc(F)cc5)c4=O)cc3F)c2nc1OC [Compound 77, 6-Cyano-N-[4-[(6,7-dimethoxy-1,5-naphthyridin-4-yl)oxy]-3-fluorophenyl]-5-(4-fluorophenyl)-1-methyl-4-oxopyridine-3-carboxamide] | < 100 nM | < 100 nM |
| COc1cc2nccc(Oc3ccc(NC(=O)c4cn(C)c(OC)c(-c5ccc(F)cc5)c4=O)cc3F)c2nc1OC [Compound 78, N-[4-[(6,7-Dimethoxy-1,5-naphthyridin-4-yl)oxy]-3-fluorophenyl]-5-(4-fluorophenyl)-6-methoxy-1-methyl-4-oxopyridine-3-carboxamide] | < 100 nM | < 100 nM |
| COc1cnc2c(Oc3ccc(NC(=O)c4c(C)ncc(-c5ccc(F)cc5)c4O)cc3F)ccnc2c1 [Compound 80, N-[3-Fluoro-4-[(7-methoxy-1,5-naphthyridin-4-yl)oxy]phenyl]-5-(4-fluorophenyl)-4-hydroxy-2-methylpyridine-3-carboxamide] | < 100 nM | < 100 nM |
| COc1cc2nccc(Oc3ccc(NC(=O)c4c(C)n(C)cc(-c5ccc(F)cc5)c4=O)cc3F)c2nc1OC [Compound 81, N-[4-[(6,7-Dimethoxy-1,5-naphthyridin-4-yl)oxy]-3-fluorophenyl]-5-(4-fluorophenyl)-1,2-dimethyl-4-oxopyridine-3-carboxamide] | < 100 nM | < 100 nM |
